Experimental data as given in patent US20240150300A1, “S-CONFIGURATION-CONTAINING AMINO BENZAMIDE PYRIDAZINONE COMPOUND, PREPARATION METHOD THEREFOR, AND PHARMACEUTICAL COMPOSITION AND APPLICATION THEREOF” (SHANGHAI INSTITUTE OF MATERIA MEDICA, CHINESE ACADEMY OF …, priority 2021, published 2024).

What was measured:
[1] = tested on: SKM-1 cells; assay: Antiproliferative activity, CCK-8, SKM-1; format: cell-based, human
Protocol: (§1) The tumor cells used were purchased from commercial cell banks (HCT116 purchased from ATCC, SKM 1 purchased from JCRB). The growth inhibition of cells was detected using the CCK-8 method. The specific steps were as follows. Cells in the logarithmic growth phase were seeded into a 96 well culture plate at an appropriate density, with 90 μL/well. After overnight cultivation, different concentrations of drugs were added for treatment for 72 h, with each concentration in triplicate, and corresponding concentration of vehicle control and cell-free blank wells were also set. After the treatment, 10 μL of CCK-8 was added to each well and the plate was incubated in an incubator for 2-4 hours, and the optical density (OD value) at a wavelength of 450 nm was measured using a SpectraMax 190 microplate reader. […] The experiment was repeated twice, and the mean value and SD were calculated.
With reference to HCT-116 cell proliferation inhibition test method, the inhibitory activity of the compounds on the proliferation of human myelodysplastic syndrome cell SKM-1 was tested.

[2] = tested on: HCT-116 cells; assay: Antiproliferative activity, CCK-8, HCT-116; format: cell-based, human
Protocol: as §1

[3] = target: HDAC1 (Homo sapiens (Human), UniProt Q13547); assay: In vitro histone deacetylase activity assay (HTRF), HDAC1; format: biochemical; conditions: H3(1-21) K9Ac biotin substrate
Chain of HDAC1 (Q13547 whole entry): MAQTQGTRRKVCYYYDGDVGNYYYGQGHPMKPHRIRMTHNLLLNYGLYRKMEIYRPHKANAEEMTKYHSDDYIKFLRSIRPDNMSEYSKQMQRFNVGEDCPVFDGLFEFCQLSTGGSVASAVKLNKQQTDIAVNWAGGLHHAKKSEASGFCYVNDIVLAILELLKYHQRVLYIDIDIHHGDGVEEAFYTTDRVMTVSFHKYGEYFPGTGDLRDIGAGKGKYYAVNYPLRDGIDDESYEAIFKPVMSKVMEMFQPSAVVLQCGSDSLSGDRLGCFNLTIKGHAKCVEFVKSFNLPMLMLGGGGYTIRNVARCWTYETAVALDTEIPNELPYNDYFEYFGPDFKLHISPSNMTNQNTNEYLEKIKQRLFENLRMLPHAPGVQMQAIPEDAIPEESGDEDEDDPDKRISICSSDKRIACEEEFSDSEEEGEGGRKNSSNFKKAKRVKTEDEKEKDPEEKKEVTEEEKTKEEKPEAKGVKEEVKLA
Protocol: (§2) Human recombinant HDAC family proteins with His and GST tags were expressed using insect baculovirus expression system, and a biologically active HDAC family recombinant protein was obtained through Ni affinity column protein purification. HTRF detection method was used with H3(1-21) K9Ac biotin as the substrate. […] Briefly, 20 μl of the activity testing system included the HDAC substrate (0.2 μM. 4 μl), the Human Recombinant Protein HDAC (2-5 ng)/μl.

[4] = target: HDAC6 (Homo sapiens (Human), UniProt Q9UBN7); assay: In vitro histone deacetylase activity assay (HTRF), HDAC6; format: biochemical; conditions: H3(1-21) K9Ac biotin substrate
Chain of HDAC6 (Q9UBN7 whole entry): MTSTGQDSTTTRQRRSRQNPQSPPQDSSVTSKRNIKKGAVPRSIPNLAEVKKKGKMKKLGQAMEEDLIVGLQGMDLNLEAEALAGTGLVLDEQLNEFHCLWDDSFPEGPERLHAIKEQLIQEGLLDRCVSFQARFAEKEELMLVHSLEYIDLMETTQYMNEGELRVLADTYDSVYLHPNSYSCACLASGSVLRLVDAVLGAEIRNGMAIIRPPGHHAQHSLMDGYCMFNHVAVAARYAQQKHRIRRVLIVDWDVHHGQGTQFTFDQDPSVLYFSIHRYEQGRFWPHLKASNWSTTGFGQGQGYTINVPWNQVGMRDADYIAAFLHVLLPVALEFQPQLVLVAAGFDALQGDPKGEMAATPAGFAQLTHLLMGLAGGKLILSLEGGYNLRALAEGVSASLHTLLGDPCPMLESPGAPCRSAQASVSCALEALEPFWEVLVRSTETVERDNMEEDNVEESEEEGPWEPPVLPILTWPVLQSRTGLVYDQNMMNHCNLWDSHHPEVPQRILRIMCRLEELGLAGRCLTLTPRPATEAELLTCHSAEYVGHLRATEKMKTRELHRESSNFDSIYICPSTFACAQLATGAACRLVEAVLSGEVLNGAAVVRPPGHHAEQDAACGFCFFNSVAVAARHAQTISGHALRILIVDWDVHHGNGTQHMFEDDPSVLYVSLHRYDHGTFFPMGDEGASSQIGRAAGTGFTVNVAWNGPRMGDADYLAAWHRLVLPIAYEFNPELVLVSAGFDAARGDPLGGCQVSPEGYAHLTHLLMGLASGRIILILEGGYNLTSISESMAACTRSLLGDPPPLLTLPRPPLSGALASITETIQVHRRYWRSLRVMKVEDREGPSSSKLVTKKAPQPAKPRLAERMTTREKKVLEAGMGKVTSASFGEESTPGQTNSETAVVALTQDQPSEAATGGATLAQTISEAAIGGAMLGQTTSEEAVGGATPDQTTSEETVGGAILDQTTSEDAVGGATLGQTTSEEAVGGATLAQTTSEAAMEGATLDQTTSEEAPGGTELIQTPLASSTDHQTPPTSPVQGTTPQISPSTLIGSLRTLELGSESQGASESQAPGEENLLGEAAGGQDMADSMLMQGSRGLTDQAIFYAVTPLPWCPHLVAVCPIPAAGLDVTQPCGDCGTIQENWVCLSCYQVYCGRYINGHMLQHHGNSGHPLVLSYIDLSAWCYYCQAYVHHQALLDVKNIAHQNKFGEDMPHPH
Protocol: as §2

[5] = target: HDAC10 (Homo sapiens (Human), UniProt Q969S8); assay: HDAC subtype inhibitory activity (HTRF), HDAC10; format: biochemical
Chain of HDAC10 (Q969S8 whole entry): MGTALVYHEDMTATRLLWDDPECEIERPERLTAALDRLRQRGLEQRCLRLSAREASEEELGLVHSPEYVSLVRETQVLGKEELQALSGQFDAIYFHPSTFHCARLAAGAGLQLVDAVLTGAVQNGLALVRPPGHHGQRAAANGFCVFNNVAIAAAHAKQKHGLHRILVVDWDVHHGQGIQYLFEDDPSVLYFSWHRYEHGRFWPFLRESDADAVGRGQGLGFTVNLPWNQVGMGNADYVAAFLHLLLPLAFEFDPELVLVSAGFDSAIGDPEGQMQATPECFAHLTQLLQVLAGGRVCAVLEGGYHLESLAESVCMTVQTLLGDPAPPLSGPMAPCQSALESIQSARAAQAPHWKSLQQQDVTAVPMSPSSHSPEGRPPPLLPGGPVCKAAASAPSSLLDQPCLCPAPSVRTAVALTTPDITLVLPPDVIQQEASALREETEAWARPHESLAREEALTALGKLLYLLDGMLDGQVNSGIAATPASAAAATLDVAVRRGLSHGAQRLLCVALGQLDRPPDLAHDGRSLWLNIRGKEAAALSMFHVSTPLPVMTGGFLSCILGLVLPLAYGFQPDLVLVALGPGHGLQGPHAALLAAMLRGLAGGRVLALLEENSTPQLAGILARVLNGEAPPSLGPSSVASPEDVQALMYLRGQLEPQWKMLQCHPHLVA
Protocol: as §2

[6] = target: HDAC8 (Homo sapiens (Human), UniProt Q9BY41); assay: HDAC subtype inhibitory activity (HTRF), HDAC8; format: biochemical
Chain of HDAC8 (Q9BY41 whole entry): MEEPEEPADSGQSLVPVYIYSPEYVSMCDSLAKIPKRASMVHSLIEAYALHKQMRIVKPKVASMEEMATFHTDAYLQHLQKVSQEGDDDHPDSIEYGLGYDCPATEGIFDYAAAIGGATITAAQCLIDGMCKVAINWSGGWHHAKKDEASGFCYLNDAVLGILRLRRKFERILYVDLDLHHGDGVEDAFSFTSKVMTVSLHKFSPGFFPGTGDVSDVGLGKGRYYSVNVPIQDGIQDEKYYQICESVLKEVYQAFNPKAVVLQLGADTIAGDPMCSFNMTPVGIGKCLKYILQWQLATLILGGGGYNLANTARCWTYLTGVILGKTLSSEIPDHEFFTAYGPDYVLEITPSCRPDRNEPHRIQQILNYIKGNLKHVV
Protocol: as §2

[7] = target: HDAC3 (Homo sapiens (Human), UniProt O15379); assay: HDAC subtype inhibitory activity (HTRF), HDAC3; format: biochemical
Chain of HDAC3 (O15379 whole entry): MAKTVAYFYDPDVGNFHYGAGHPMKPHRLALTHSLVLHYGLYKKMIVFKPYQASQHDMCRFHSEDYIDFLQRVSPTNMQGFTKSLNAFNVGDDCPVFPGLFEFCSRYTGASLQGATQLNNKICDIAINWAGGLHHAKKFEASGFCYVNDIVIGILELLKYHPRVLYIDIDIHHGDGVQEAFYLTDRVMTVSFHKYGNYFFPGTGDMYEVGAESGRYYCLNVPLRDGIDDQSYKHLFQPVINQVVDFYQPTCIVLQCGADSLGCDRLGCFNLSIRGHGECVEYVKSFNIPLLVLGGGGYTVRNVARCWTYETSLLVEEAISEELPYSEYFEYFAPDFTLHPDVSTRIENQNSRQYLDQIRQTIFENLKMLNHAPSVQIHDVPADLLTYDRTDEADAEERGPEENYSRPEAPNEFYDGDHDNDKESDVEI
Chain of HDAC3 (Q9Y618 395-489 partner): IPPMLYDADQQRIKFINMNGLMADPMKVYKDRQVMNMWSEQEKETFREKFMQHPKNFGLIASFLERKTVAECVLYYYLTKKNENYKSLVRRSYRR
Protocol: as §2

[8] = target: HDAC2 (Homo sapiens (Human), UniProt Q92769); assay: HDAC subtype inhibitory activity (HTRF), HDAC2; format: biochemical
Chain of HDAC2 (Q92769 whole entry): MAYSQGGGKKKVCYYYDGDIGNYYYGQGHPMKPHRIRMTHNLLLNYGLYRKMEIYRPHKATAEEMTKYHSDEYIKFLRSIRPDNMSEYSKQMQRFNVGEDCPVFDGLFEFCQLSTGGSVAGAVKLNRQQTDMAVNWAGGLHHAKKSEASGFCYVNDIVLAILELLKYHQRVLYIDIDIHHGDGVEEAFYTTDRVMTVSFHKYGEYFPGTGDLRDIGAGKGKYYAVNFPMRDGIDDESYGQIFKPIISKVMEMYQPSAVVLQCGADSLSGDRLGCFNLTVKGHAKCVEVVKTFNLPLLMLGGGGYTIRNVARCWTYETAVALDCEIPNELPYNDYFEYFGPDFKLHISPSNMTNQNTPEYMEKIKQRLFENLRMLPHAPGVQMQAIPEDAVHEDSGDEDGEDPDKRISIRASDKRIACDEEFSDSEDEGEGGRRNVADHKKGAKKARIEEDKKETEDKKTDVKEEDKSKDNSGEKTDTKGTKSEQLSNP
Protocol: as §2

IC50 ([1]; Homo sapiens, SKM-1, 72 h) [nM]	IC50 ([2]; Homo sapiens, HCT-116, 72 h) [nM]	IC50 [3] [nM]	IC50 [4] [nM]	IC50 [5] [nM]	IC50 [6] [nM]	IC50 [7] [nM]	IC50 [8] [nM]	IC50 ([1]; 72 h) [nM]	IC50 ([2]; 72 h) [nM]	Compound
160 ± 1	230 ± 4	35.2 ± 4.47	> 10000							COc1cccc(-c2ccc(=O)n([C@@H](C)c3ccc(C(=O)Nc4ccccc4N)cc3)n2)c1 [Compound I-4]
60 ± 1	80 ± 2	23.3 ± 1.1	> 10000	> 100000	> 100000	390 ± 28	90 ± 2			C[C@@H](c1ccc(C(=O)Nc2ccccc2N)cc1)n1nc(-c2ccc(CN(C)C)cc2)ccc1=O [Compound I-2]
550 ± 4	1700 ± 105									Nc1cc(F)ccc1NC(=O)c1ccc(CNC(=O)/C=C/c2cccnc2)cc1 [Chidamide, reference compound]
90 ± 4	110 ± 7									CC(c1ccc(C(=O)Nc2ccccc2N)cc1)n1nc(-c2ccc(CN(C)C)cc2)ccc1=O (racemic) [HYH-072 (racemate of I-2), reference compound]
240 ± 11	330 ± 4	60.5 ± 5.73	> 10000							C[C@@H](c1ccc(C(=O)Nc2ccccc2N)cc1)n1nc(-c2ccncc2)ccc1=O [Compound I-6]
		42.4 ± 0.8	> 10000					270 ± 19	310 ± 37	COc1ccc(N)c(NC(=O)c2ccc([C@H](C)n3nc(-c4ccc(CN(C)C)cc4)ccc3=O)cc2)c1 [Compound I-11]
210 ± 5	310 ± 18	99.5 ± 11.1	> 10000							C[C@@H](c1ccc(C(=O)Nc2cc(F)c(F)cc2N)cc1)n1nc(-c2ccc(CN(C)C)cc2)ccc1=O [Compound I-7]
	400 ± 72	50.5 ± 13.7	> 10000							C[C@@H](c1ccc(C(=O)Nc2ccccc2N)cc1)n1nc(-c2ccccc2)ccc1=O [Compound I-10]
230 ± 10	380 ± 1									CC(c1ccc(C(=O)Nc2ccc(F)cc2N)cc1)n1nc(-c2ccc(CN(C)C)cc2)ccc1=O (racemic) [HYH-073 (racemate of I-1), reference compound]
200 ± 1	280 ± 8	124 ± 24.4	> 10000							C[C@@H](c1ccc(C(=O)Nc2ccccc2N)cc1)n1nc(-c2cnn(C)c2)ccc1=O [Compound I-5]
490 ± 16	870 ± 37	126 ± 18.3	> 10000							COc1ccc(NC(=O)c2ccc([C@H](C)n3nc(-c4ccc(CN(C)C)cc4)ccc3=O)cc2)c(N)c1 [Compound I-8]
		44.8 ± 1.53	> 10000					170 ± 2	220 ± 24	Cc1ccc(N)c(NC(=O)c2ccc([C@H](C)n3nc(-c4ccc(CN(C)C)cc4)ccc3=O)cc2)c1 [Compound I-13]
100	140 ± 4	31.3 ± 3.27	> 10000							C[C@@H](c1ccc(C(=O)Nc2cc(F)ccc2N)cc1)n1nc(-c2ccc(CN(C)C)cc2)ccc1=O [Compound I-12]
		375 ± 42.1	> 10000	> 100000	> 100000	720 ± 196	320 ± 48	1060 ± 79	1550 ± 94	C[C@H](c1ccc(C(=O)Nc2ccc(F)cc2N)cc1)n1nc(-c2ccc(CN(C)C)cc2)ccc1=O [I-1 (R configuration), reference compound]
270 ± 13	390 ± 6	52.4 ± 10.2	> 10000							C[C@@H](c1ccc(C(=O)Nc2ccccc2N)cc1)n1nc(-c2cccc(Cl)c2)ccc1=O [Compound I-3]

Compound	IC50 ([1]; Homo sapiens, SKM-1, 72 h) [nM]	IC50 ([2]; Homo sapiens, HCT-116, 72 h) [nM]	IC50 [3] [nM]	IC50 [4] [nM]	IC50 [5] [nM]	IC50 [6] [nM]	IC50 [7] [nM]	IC50 [8] [nM]	IC50 ([1]; 72 h) [nM]	IC50 ([2]; 72 h) [nM]
C[C@@H](c1ccc(C(=O)Nc2cccc(F)c2N)cc1)n1nc(-c2ccc(CN(C)C)cc2)ccc1=O [Compound I-9]	340 ± 13	500 ± 65	122 ± 11.1	> 10000						
Nc1ccccc1NC(=O)c1ccc(CNC(=O)OCc2cccnc2)cc1 [MS-275, Entinostat, reference compound]	390	1480 ± 8								
